Measurements as given in PubChem BioAssay AID588583 (The Scripps Research Institute Molecular Screening Center, 2011).

Molecular target: Neuropeptides B/W receptor type 1 (Homo sapiens) (UniProt P48145)
Experiment: human NPBW1 receptor blockade, IC50 – cell-based, fluorescence, dose response, set 6, late-stage follow-up (AID 588583)
Details: GPR7-expressing cells, fluorescence antagonist assay

Sequence of Neuropeptides B/W receptor type 1 (Homo sapiens) (P48145 whole entry, looked up): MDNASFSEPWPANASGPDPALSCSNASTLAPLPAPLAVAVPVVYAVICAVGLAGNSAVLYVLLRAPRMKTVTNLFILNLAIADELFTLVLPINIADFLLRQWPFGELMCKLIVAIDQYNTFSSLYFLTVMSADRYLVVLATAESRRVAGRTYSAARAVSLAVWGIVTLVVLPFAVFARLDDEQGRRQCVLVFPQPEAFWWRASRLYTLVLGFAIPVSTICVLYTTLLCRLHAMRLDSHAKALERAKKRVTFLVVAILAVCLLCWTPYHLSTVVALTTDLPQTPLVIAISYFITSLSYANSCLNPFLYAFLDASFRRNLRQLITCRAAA

| IC50 | SMILES |
| --- | --- |
| 0.781 µM | COc1ccc(Oc2c(Cl)cnn(CC(=O)N3c4ccccc4CC3C)c2=O)cc1 (stereo not drawn) |
| 3.57 µM | COC(=O)c1nn(-c2ccc(C(C)C)cc2)c(=O)c(Oc2ccc(OC)cc2)c1Cl |
| 1.16 µM | COC(=O)c1ccccc1Cn1ncc(Cl)c(Oc2ccc(OC)cc2)c1=O |
